US12604891B2, “Antifoulant marine structures compositions and methods thereof” (THE TEXAS A&M UNIVERSITY SYSTEM, priority 2020, dated 2026)

What was measured:
Format in all cases: cell-based
[1] = test system: Escherichia coli; assay: Agar diffusion test, cytotoxic potential (ASTM F895); conditions: antimicrobial composition in wells punched into inoculated agar, 78° F., 24 hours; FIG. 1
Protocol: The instant example evaluated various antimicrobial compositions for cytotoxic potential. Briefly, ASTM […] is a test method useful for assessing the cytotoxic potential of new materials and formulations and as part of a quality control program for established medical devices and components. Qualitative results of the potency of various antimicrobial compositions were evaluated using this test method. […] The testing wells were then compared to one another based on the zone of inhibition of cell or spore growth created for each well. Petri dishes were place in an incubator at 78° F. for 24 hours. The zones of inhibition around each well were then compared and the best two antimicrobial compositions from this example were utilized in subsequent testing.

[2] = test system: Staphylococcus aureus; assay: Antimicrobial activity under dynamic contact conditions (ASTM E2149-13a), dynamic shaker test, compositions comprising a polymer; conditions: FIG. 3
Protocol: The instant example evaluated various antifoulant compositions for antimicrobial activity under dynamic contact conditions. Briefly, ASTM E2149-13a is a test standard for determining antimicrobial activity of antimicrobial compositions under dynamic contact conditions. The 2×2 inch antifoulant composition samples from Example 1 and Example 2 were placed in sterilized 500 mL flasks with 100 mL of distilled water.
For antifoulant compositions comprising a polymer, Staphylococcus aureus (gram-positive bacteria) were added to each flask at 3×10^6 VC/mL. For antifoulant compositions comprising a composite material, Escherichia coli (gram-negative bacteria) were added to each flask at approximately 1×10^6 cells/mL. Three samples (0.1 mL each) were taken immediately from each flask and spread on TSA plates. The flasks were incubated in a 37° C. shaking incubator at 200 rpm. Three samples (0.1 mL each) were removed and plated at 1 hour intervals for three hours. Plates were left for growth at 25° C. for 60 hours. Colonies were counted using Sphere Flash and the average VC/mL or colony forming units (CFU) were documented.

[3] = test system: gram-positive and gram-negative bacteria; assay: Laboratory testing, overall comparison of antimicrobials; conditions: summary
Description: E. coli is a gram-negative bacteria that has a more complicated cell wall structure which makes this bacteria more difficult to penetrate and mitigate. In contrast, S. aureus is a gram positive bacteria and is naturally more susceptible to antimicrobials and, thus, may be easier to control.

| Compound | inhibition of bacterial growth per visible zone of inhibition around the sample [1] | antibacterial efficacy ([2]; S. aureus, dynamic fluid conditions, antifoulant composition comprising a polymer (HDPE)) | relative antimicrobial efficacy among tested antimicrobials ([2]; antimicrobials in antifoulant compositions comprising a polymer (HDPE), dynamic flow conditions) | efficacies and performance with both gram-positive and gram-negative bacteria [3] |
| --- | --- | --- | --- | --- |
| [O]=[Zn] [zinc oxide] | demonstrated efficacy in inhibiting bacterial growth |  |  |  |
| zinc pyrithione | demonstrated efficacy in inhibiting bacterial growth | 99.9% | most efficacious | highest efficacies and performance |
